Results taken from PubChem BioAssay (NCI).
Several values for one entry are separate records, joined by “and”; a condition that tells them apart may be missing. Equal values may be shown once.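 In this assay, cells in 96-well plates receive the compound at five concentrations for 48 hours. Endpoints are linearly interpolated between the surrounding concentrations. Abbreviation: GI50, concentration required for 50% inhibition of growth. TGI is the concentration that stops growth completely.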

How the values were obtained:
Assay in all cases: NCI-60 cell line screen, 48 h
NCI-H522 lung = test system: NCI-H522 lung
MCF7 breast = test system: MCF7 breast
UACC-257 melanoma = test system: UACC-257 melanoma
M14 melanoma = test system: M14 melanoma
SK-MEL-5 melanoma = test system: SK-MEL-5 melanoma
OVCAR-3 ovarian = test system: OVCAR-3 ovarian
BT-549 breast = test system: BT-549 breast
U251 CNS = test system: U251 CNS
A498 renal = test system: A498 renal
NCI-H23 lung = test system: NCI-H23 lung

| Compound | TGI (NCI-H522 lung) [nM] | TGI (MCF7 breast) [nM] | TGI (UACC-257 melanoma) [nM] | TGI (M14 melanoma) [nM] | TGI (SK-MEL-5 melanoma) | TGI (OVCAR-3 ovarian) [nM] | TGI (BT-549 breast) [nM] | TGI (U251 CNS) | TGI (A498 renal) | TGI (NCI-H23 lung) [nM] | GI50 (NCI-H522 lung) | GI50 (MCF7 breast) | GI50 (UACC-257 melanoma) [nM] | GI50 (M14 melanoma) | GI50 (SK-MEL-5 melanoma) | GI50 (OVCAR-3 ovarian) | GI50 (BT-549 breast) | GI50 (U251 CNS) | GI50 (A498 renal) | GI50 (NCI-H23 lung) |
| --- | --- | --- | --- | --- | --- | --- | --- | --- | --- | --- | --- | --- | --- | --- | --- | --- | --- | --- | --- | --- |
| c1cc2c(c(NC3=NCCN3)c1)CCCC2 | > 100000 | > 100000 | > 100000 | > 100000 | > 100000 nM | > 100000 | > 100000 | > 100000 nM | > 100000 nM | > 100000 | – | – | – | – | – | – | – | – | – | – |
| CNCCNc1nc2ccccc2c2c(=O)c3cccc(C)c3sc12 | 4420 | 1820 | 1950 | 1700 | 12600 nM | 5270 | 12100 | 2250 nM | 3940 nM | 11700 | 1300 nM | 793 nM | 944 | 853 nM | 6140 nM | 1470 nM | 5340 nM | 968 nM | 1070 nM | 5130 nM |
| CNc1ncc2cc(-c3cc(NC(=O)NCCC(C)(C)C)c(F)cc3C)c(C)nc2n1 | > 20900 | > 100000 | 55.5 | – | 16300 nM and > 10000 nM | > 100000 | > 100000 | 31600 nM and > 10000 nM | 743 nM and 650 nM | > 42100 | 294 nM and 333 nM | 4980 nM and 8580 nM | 13.9 | < 10 nM and 10.5 nM | 458 nM and 309 nM | 1930 nM and 1890 nM | 3290 nM and 2490 nM | 572 nM and 474 nM | 149 nM and 167 nM | 147 nM and 186 nM |
